Measured values reported in patent US6734206B1, “3-oxa-8-azaprostaglandin analogs as agents for lowering intraocular pressure” (Allergan, Inc., priority 2003, dated 2004).

How the values were obtained:
hEP4 [1] = target: T1, hEP4 (Homo sapiens, UniProt P35408); assay: Functional data, human EP4 receptor; format: cell-based; settings: NA = not active
T1 construct: expressed in transfected cells
Experimental: (§1) Plasmids encoding the human EP1, EP2, EP3, EP4, FP, TP, IP and DP receptors were prepared by cloning the respective coding sequences into the eukaryotic expression vector pCEP4 (Invitrogen). The pCEP4 vector contains an Epstein Barr virus (EBV) origin of replication, which permits episomal replication in primate cell lines expressing EBV nuclear antigen (EBNA-1). It also contains a hygromycin resistance gene that is used for eukaryotic selection. The cells employed for stable transfection were human embryonic kidney cells (HEK-293) that were transfected with and express the EBNA-1 protein. These HEK-293-EBNA cells (Invitrogen) were grown in medium containing Geneticin (G418) to maintain expression of the EBNA-1 protein. HEK-293 cells were grown in DMEM with 10% fetal bovine serum (FBS), 250 μg ml^−1 G418 (Life Technologies) and 200 μg ml^−1 gentamicin or penicillin/streptomycin.
(§2) For transfection, the cells were grown to 50-60% confluency on 10 cm plates. The plasmid pCEP4 incorporating cDNA inserts for the respective human prostanoid receptor (20 μg) was added to 500 μl of 250 mM CaCl2. HEPES buffered saline×2 (2×HBS, 280 mM NaCl, 20 mM HEPES acid, 1.5 mM Na2HPO4, pH 7.05-7.12) was then added dropwise to a total of 500 μl, with continuous vortexing at room temperature. After 30 min, 9 ml DMEM were added to the mixture. The DNA/DMEM/calcium phosphate mixture was then added to the cells, which had been previously rinsed with 10 ml PBS. The cells were then incubated for 5 hr at 37° C. in humidified 95% air/5% CO2. The calcium phosphate solution was then removed and the cells were treated with 10% glycerol in DMEM for 2 min. The glycerol solution was then replaced by DMEM with 10% FBS. The cells were incubated overnight and the medium was replaced by DMEM/10% FBS containing 250 μg ml^−1 G418 and penicillin/streptomycin. The following day hygromycin B was added to a final concentration of 200 μg ml^−1.
(§3) Ten days after transfection, hygromycin B resistant clones were individually selected and transferred to a separate well on a 24 well plate. At confluence each clone was transferred to one well of a 6 well plate, and then expanded in a 10 cm dish. Cells were maintained under continuous hygromycin selection until use.

hTP = target: T2, hTP (Homo sapiens, UniProt P21731); assay: Functional data, human TP receptor; format: cell-based; settings: NA = not active
T2 construct: expressed in transfected cells
T2 sequence (P21731 1-343): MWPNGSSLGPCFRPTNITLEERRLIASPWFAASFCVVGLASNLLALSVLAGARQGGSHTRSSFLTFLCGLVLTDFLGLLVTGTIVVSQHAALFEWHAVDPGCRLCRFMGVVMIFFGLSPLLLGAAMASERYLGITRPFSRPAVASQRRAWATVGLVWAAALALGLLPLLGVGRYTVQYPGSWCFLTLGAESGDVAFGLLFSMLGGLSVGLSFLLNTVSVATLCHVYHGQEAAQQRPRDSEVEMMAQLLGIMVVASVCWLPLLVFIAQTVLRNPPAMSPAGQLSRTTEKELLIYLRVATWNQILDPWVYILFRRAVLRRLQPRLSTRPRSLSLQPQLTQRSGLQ
Experimental: as §1, §2, §3

hEP4 [2] = target: T1, hEP4; assay: Radioligand binding, human EP4 receptor; settings: NA = not active
Experimental: as §1
(§4) For transfection, the cells were grown to 50-60% confluency on 10 cm plates. The plasmid pCEP4 incorporating cDNA inserts for the respective human prostanoid receptor (20 μg) was added to 500 μl of 250 mM CaCl2. HEPES buffered saline×2 (2×HBS, 280 mM NaCl, 20 mM HEPES acid, 1.5 mM Na2HPO4, pH 7.05-7.12) was then added dropwise to a total of 500 μl, with continuous vortexing at room temperature. After 30 min, 9 ml DMEM were added to the mixture. The DNA/DMEM/calcium phosphate mixture was then added to the cells, which had been previously rinsed with 10 ml PBS. The cells were then incubated for 5 hr at 37° C. in humidified 95% air/5% CO2. […]
Radioligand binding studies on plasma membrane fractions prepared for cells stably transfected with the cat or human receptor were performed as follows. […] The pellet was then resuspended in TME buffer to provide a final protein concentration of 1 mg/ml, as determined by Bio-Rad assay. […]
The binding of [^3H](N) PGE2 (specific activity 165 Ci/mmol) was determined in duplicate and in at least 3 separate experiments. […] Competition studies were performed using a final concentration of 2.5 or 5 nM [^3H](N) PGE2 and non-specific binding was determined with 10^−5 M unlabelled PGE2.

hEP1 = target: T3, hEP1 (Homo sapiens, UniProt P34995); assay: Functional data, human EP1 receptor; format: cell-based; settings: NA = not active
T3 construct: expressed in transfected cells
T3 sequence (P34995 1-402): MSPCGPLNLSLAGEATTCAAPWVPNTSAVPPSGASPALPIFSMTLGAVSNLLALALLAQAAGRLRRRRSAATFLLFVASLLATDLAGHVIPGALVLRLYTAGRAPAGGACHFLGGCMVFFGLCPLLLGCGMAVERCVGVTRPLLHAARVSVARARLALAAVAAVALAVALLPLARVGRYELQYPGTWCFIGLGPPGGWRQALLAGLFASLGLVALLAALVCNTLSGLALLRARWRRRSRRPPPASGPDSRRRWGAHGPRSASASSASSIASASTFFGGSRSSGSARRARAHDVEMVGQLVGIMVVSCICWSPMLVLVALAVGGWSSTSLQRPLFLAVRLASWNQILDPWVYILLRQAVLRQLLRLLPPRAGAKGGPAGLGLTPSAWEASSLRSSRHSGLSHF
Experimental: as §1, §2
Ten days after transfection, hygromycin B resistant clones were individually selected and transferred to a separate well on a 24 well plate. […]

hEP3A = target: T4, hEP3A (Homo sapiens, UniProt P43115); assay: Functional data, human EP3A receptor; format: cell-based; settings: NA = not active
T4 construct: expressed in transfected cells
T4 sequence (P43115 1-390): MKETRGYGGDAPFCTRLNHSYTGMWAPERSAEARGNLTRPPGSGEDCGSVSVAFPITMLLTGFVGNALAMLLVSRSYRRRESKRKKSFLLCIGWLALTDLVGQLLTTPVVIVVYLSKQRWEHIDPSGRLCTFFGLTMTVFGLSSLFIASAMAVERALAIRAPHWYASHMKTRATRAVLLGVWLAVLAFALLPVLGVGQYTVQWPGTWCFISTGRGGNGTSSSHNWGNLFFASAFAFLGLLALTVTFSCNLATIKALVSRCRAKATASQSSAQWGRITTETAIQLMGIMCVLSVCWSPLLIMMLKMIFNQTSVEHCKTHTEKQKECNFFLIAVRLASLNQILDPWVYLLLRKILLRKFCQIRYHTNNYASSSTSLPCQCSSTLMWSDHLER
Experimental: as §1
as §4, with “mixture.” for “mixture. The DNA/DMEM/calcium phosphate mixture was then added to the cells, which had been previously rinsed with 10 ml PBS. The cells were then incubated for 5 hr at 37° C. in humidified 95% air/5% CO2.”

normotensive dogs [3] = assay: Intraocular pressure in dogs, applanation pneumatonometry; format: in vivo, dog; settings: topical once daily dosing, 0.1%, at 52 h, normotensive dogs (n=8)
Experimental: (§5) The effects of the compounds of this invention on intraocular pressure may be measured as follows. The compounds are prepared at the desired concentrations in a vehicle comprising 0.1% polysorbate 80 and 10 mM TRIS base. Dogs are treated by administering 25 μl to the ocular surface, the contralateral eye receives vehicle as a control. Intraocular pressure is measured by applanation pneumatonometry. A topical once daily dosing of (4-{(R)-2-[(E)-4-(3-chlorophenyl)-3-hydroxy-but-1-enyl]-5-oxo-pyrrolidin-1-yl}-butoxy)-acetic acid [example 8] […] The maximum ocular surface hyperemia score was 1.5 (1.5 at 26, 50 and 52 h).

normotensive dogs [4] = assay: Ocular surface hyperemia in dogs; format: in vivo, dog; settings: topical once daily dosing, 0.1%, 1.5 at 26, 50 and 52 h
Experimental: as §5

T1 sequence (P35408 whole entry): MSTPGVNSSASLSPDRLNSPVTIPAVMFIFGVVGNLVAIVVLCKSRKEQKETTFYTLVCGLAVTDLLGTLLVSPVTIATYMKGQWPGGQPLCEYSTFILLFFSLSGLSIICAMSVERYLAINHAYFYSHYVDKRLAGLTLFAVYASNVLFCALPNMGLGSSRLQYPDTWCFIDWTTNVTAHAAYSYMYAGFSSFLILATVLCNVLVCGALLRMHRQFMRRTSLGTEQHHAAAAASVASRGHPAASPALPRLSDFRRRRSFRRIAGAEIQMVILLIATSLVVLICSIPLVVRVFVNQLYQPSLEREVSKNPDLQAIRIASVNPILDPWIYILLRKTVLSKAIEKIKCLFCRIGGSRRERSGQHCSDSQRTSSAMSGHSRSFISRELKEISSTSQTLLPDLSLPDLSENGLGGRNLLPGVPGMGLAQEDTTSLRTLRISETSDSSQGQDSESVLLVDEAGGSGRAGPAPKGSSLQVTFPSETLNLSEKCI

Structure (SMILES)	EC50 (hEP4 [1])	EC50 (hTP)	IC50 (hEP4 [2])	EC50 (hEP1)	also measured
COC(=O)COCCCCN1C(=O)CCC1CCC(=O)Cc1cccc(Cl)c1 (stereo in doubt) [Example 3, (4-{(R)-2-[4-(3-Chlorophenyl)-3-oxo-butyl]-5-oxo-pyrrolidin-1-yl}-butoxy)-acetic Acid Methyl Ester]	> 10000 nM	> 10000 nM			
O=C(O)COCCCCN1C(=O)CCC1CCC(=O)Cc1cccc(Cl)c1 (stereo in doubt) [Example 4, (4-{(R)-2-[4-(3-Chlorophenyl)-3-oxo-butyl]-5-oxo-pyrrolidin-1-yl}-butoxy)-acetic Acid]	1720 nM	> 10000 nM	3100 nM		
COC(=O)COCCCCN1C(=O)CC[C@@H]1/C=C/[C@H](O)Cc1cccc(Cl)c1 [Example 7, (4-{(R)-2-[(E)-4-(3-Chlorophenyl)-3-hydroxy-but-1-enyl]-5-oxo-pyrrolidin-1-yl}-butoxy)-acetic Acid Methyl Ester]	> 10000 nM				
O=C(O)COCCCCN1C(=O)CC[C@@H]1CC[C@H](O)Cc1cccc(Cl)c1 (stereo in doubt) [Example 6, (4-{(R)-2-[4-(3-Chlorophenyl)-3-hydroxy-butyl]-5-oxo-pyrrolidin-1-yl}-butoxy)-acetic Acid]	192 nM	> 10000 nM	562 nM	3810 nM	
COC(=O)COCCCCN1C(=O)CC[C@@H]1/C=C/C(=O)Cc1cccc(Cl)c1 [Example 1, (4-{(R)-2-[(E)-4-(3-chlorolphenyl)-3-oxo-but-1-enyl]-5-oxo-pyrrolidin-1-yl}-butoxy)-acetic Acid Methyl Ester]	61 nM			721 nM	
O=C(O)COCCCCN1C(=O)CC[C@@H]1/C=C/C(=O)Cc1cccc(Cl)c1 [Example 2]		< 10000 nM			EC50 (hEP3A): > 10000 nM
O=C(O)COCCCCN1C(=O)CC[C@@H]1/C=C/[C@H](O)Cc1cccc(Cl)c1 [Example 8, (4-{(R)-2-[(E)-4-(3-Chlorolphenyl)-3-hydroxy-but-1-enyl]-5-oxo-pyrrolidin-1-yl}-butoxy)-acetic Acid]	11 nM	> 10000 nM	30 nM		maximum IOP decrease from baseline (normotensive dogs [3]): 4.9 mmHg; maximum IOP decrease from baseline (percent) (normotensive dogs [3]): 26.6%; maximum ocular surface hyperemia score (normotensive dogs [4]): 1.5
COC(=O)COCCCCN1C(=O)CC[C@@H]1CC[C@H](O)Cc1cccc(Cl)c1 (stereo in doubt) [Example 5, (4-{(R)-2-[4-(3-Chlorophenyl)-3-hydroxy-butyl]-5-oxo-pyrrolidin-1-yl}-butoxy)-acetic Acid Methyl Ester]	1780 nM			> 10000 nM	
